Test results reported in patent US11000487B2, “Compositions and methods for the treatment of chronic pain” (CELLIX BIO PRIVATE LIMITED, priority 2016, dated 2021).
Converted amounts (≈) assume the structure as drawn. Where two headings read alike, the source gives them in different places.

Key:
[1] = comparison among long-chain fatty acids; cited from earlier work
[2] = system: oral pathogenic microorganisms; details: n-6 fatty acids GLA; cited from earlier work
Candida Species [3] = experiment: minimum inhibitory concentration against Candida; format: cell-based; details: conversion of 0.45 μmoles/ml
C. albicans = details: cited from earlier work
Candida Species [4] = details: cited from earlier work

SMILES | antimicrobial activity among the long-chain fatty acids [1] | bactericidal concentration [2] | MIC (Candida Species [3]) | activity against C. albicans (C. albicans) | MIC (Candida Species [4])
CCCCCC/C=C\CCCCCCCC(=O)O [palmitoleic acid] | greatest antimicrobial activity |  |  |  | 
CCCCC/C=C\C/C=C\C/C=C\C/C=C\CCCC(=O)O [arachidonic acid] | greatest antimicrobial activity |  |  |  | 
CCCCC/C=C\C/C=C\C/C=C\CCCCC(=O)O [GLA, gamma linoleic acid] | greatest antimicrobial activity | 25 µg/mL |  |  | 
CCCCC/C=C\C/C=C\CCCCCCCC(=O)O [linoleic acid] | greatest antimicrobial activity |  | 0.13 µg/mL (≈ 0.464 µM) | < 40% | 450 µM (≈ 126 µg/mL)
CCCCCCCCCCCCCCCC(=O)O [palmitic acid] | greatest antimicrobial activity |  |  |  | 
